Read-outs that look alike come from different tables or passages of the source.
Key:
Shig. flexneri = assay: MIC by Steers' agar dilution method; assay type: cell-based; settings: Shigella flexneri, MHA
S. typhimurium = assay: MIC by Steers' agar dilution method; settings: Salmonella enterica
Urinary recovery in rats = assay type: in vivo; settings: rat, urine, sc 10 mg./kg., 0-24 Hrs.
[1] = test system: E. cloacae A20464 (El-19); assay: Standard experimental infection in mice; assay type: in vivo; settings: Run C-811
Pr. rettgeri = assay: MIC by Steers' agar dilution method; settings: Providencia rettgeri
S. paratyphi = assay: MIC by Steers' agar dilution method; settings: Salmonella enterica
P. stuartii = assay: MIC by Steers' agar dilution method; settings: Providencia stuartii
K. pneumoniae A9977 = assay: Standard experimental infection in mice; assay type: in vivo; settings: for ED50: Klebsiella pneumoniae, A9977, read-out: PD50
E. coli Juhl = assay: Standard experimental infection in mice; assay type: in vivo; settings: Table 6
S. aureus Smith = assay: Standard experimental infection in mice; assay type: in vivo; settings: Table 6
S. pyogenes = assay: MIC by Steers' agar dilution method
Sal. typhosa = assay: MIC by Steers' agar dilution method; assay type: cell-based; settings: St-1; MHA; Table 3
Enterob. cloacae = assay: MIC by Steers' agar dilution method
Klebsiella sp. = assay: MIC by Steers' agar dilution method
Pr. mirabilis = assay: MIC by Steers' agar dilution method; settings: Proteus mirabilis
P. vulgaris A9436 (Pv-1) = assay: Standard experimental infection (single sc treatment); settings: for No. of survivors/No. tested: Run C-808, single sc
[2] = test system: P. mirabilis A9900 (Pm-2); assay: as above; settings: for No. of survivors/No. tested: Run C-810, 1×10^3 LD50, single sc
P. inconstans = assay: MIC by Steers' agar dilution method; settings: Providencia alcalifaciens

Cn1nnnc1SCC1=C(C(=O)O)N2C(=O)[C@@H](NC(=O)[C@H](O)c3ccccc3)[C@H]2SC1 [Cefamandole, cefamandole, reference compound]
50 mg/kg: ED50 ([2]; Proteus mirabilis, in Mus musculus, sc, read-out: PD50)
0.6 mg/kg: ED50 (S. aureus Smith; Staphylococcus aureus, read-out: PD50)
1/5: No. of survivors/No. tested ([1]; 0.4 mg./kg.) | No. of survivors/No. tested (K. pneumoniae A9977; 6.3 mg./kg., Table 6) | No. of survivors/No. tested (K. pneumoniae A9977; Run C-805, 3×10^3 LD50, single sc, 6.3 mg./kg.) | No. of survivors/No. tested (S. aureus Smith; 0.4 mg./kg.) | No. of survivors/No. tested (P. vulgaris A9436 (Pv-1); 12.5 mg./kg.) | No. of survivors/No. tested ([2]; 12.5 mg./kg.)
100 µg/mL: MIC (Enterob. cloacae; El-2 A20364 (β-lactamase), HIA, Table 4) | MIC (Enterob. cloacae; El-9 A20021, MHA, Table 3)
0.4 µg/mL: MIC (Pr. rettgeri; MHA, Example 10) | MIC (P. stuartii; Ps-2 A20894, HIA, Table 4) | MIC (P. stuartii; Ps-2 A20894, NA, Table 4) | MIC (Klebsiella sp.; Kx-3 A20346 (β-lactamase), HIA, Table 4) | MIC (Klebsiella sp.; Kx-3 A20346 (β-lactamase), MHA, Table 4) | MIC (Klebsiella sp.; Kx-3 A20346 (β-lactamase), NA, Table 4) | MIC (Pr. mirabilis; A9554, MHA, Table 1) | MIC (Pr. mirabilis; Pm-1 A9554, HIA, Table 4) | MIC (Pr. mirabilis; Pm-2 A9900, HIA, Table 4) | MIC (Pr. mirabilis; Pm-2 A9900, NA, Table 4)
0.1 µg/mL: MIC (Pr. rettgeri; Pr-1 A15167, HIA, Table 4) | MIC (Pr. rettgeri; Pr-2 A9637, MHA, Table 3) | MIC (Pr. rettgeri; Pr-4 A20645, MHA, Table 3) | MIC (S. pyogenes) | MIC (S. pyogenes; Sp-2 Dick, MHA, Table 2) | MIC (S. pyogenes; Sp-3 A9604, MHA, Table 2) | MIC (S. pyogenes; Sp-5 A15040, MHA, Table 2) | MIC (S. pyogenes; Sp-6 A20066, MHA, Table 2) | MIC (S. pyogenes; Sp-7 Dig 7, MHA, Table 2) | MIC (S. pyogenes; Sp-8 A15041, MHA, Table 2) | MIC (S. pyogenes; Sp-9 A20201, MHA, Table 2) | MIC (S. pyogenes; Sp-10 A20202, MHA, Table 2) | MIC (S. pyogenes; Streptococcus pyogenes)
50 µg/mL: MIC (Enterob. cloacae; El-2 A20364 (β-lactamase), MHA, Table 4)
4/5: No. of survivors/No. tested ([1]; 1.6 mg./kg.)
0.8 µg/mL: MIC (Pr. rettgeri; Pr-5 A20915, MHA, Table 3) | MIC (P. stuartii; Ps-1 A20745, MHA, Table 3) | MIC (P. stuartii; Ps-2 A20894, MHA, Table 3) | MIC (P. stuartii; Ps-3 A20911, MHA, Table 3) | MIC (P. stuartii; Ps-5 A21057, MHA, Table 3) | MIC (Enterob. cloacae; El-6 A9657, MHA, Table 3) | MIC (Enterob. cloacae; El-7 A9659, MHA, Table 3) | MIC (Klebsiella sp.; Kx-3 A20346, MHA, Table 3) | MIC (Pr. mirabilis; Pm-2 A9900, MHA, Table 4) | MIC (P. inconstans)
25 µg/mL: MIC (P. stuartii; Ps-4 A21051, MHA, Table 3)
6.3 µg/mL: MIC (Shig. flexneri; A9684, Table 1) | MIC (Shig. flexneri; Example 10) | MIC (P. stuartii; Ps-1 A20745, HIA, Table 4) | MIC (P. stuartii; Ps-1 A20745, NA, Table 4) | MIC (P. stuartii; Ps-3 A20911 (β-lactamase), HIA, Table 4) | MIC (P. stuartii; Ps-3 A20911 (β-lactamase), NA, Table 4) | MIC (Enterob. cloacae; El-1 A9656, NA, Table 4) | MIC (Enterob. cloacae; El-2 A20364 (β-lactamase), NA, Table 4)
3.1 µg/mL: MIC (Shig. flexneri; Sr-1 A9684, Table 3) | MIC (P. stuartii; Ps-3 A20911 (β-lactamase), MHA, Table 4) | MIC (Enterob. cloacae; A9656, MHA, Table 1) | MIC (Enterob. cloacae; El-1 A9656, HIA, Table 4) | MIC (Enterob. cloacae; El-1 A9656, MHA, Table 3) | MIC (Enterob. cloacae; El-1 A9656, MHA, Table 4) | MIC (Enterob. cloacae; El-2 A20364, MHA, Table 3) | MIC (Enterob. cloacae; El-12 A21006, MHA, Table 3) | MIC (Enterob. cloacae; El-14 A20953, MHA, Table 3) | MIC (Enterob. cloacae; MHA, Example 10) | MIC (Pr. mirabilis; Pm-3 A20119, MHA, Table 3)
0/5: No. of survivors/No. tested (K. pneumoniae A9977; 0.4 mg./kg., Table 6) | No. of survivors/No. tested (K. pneumoniae A9977; 1.6 mg./kg., Table 6) | No. of survivors/No. tested (K. pneumoniae A9977; Run C-805, 3×10^3 LD50, single sc, 0.4 mg./kg.) | No. of survivors/No. tested (K. pneumoniae A9977; Run C-805, 3×10^3 LD50, single sc, 1.6 mg./kg.) | No. of survivors/No. tested (E. coli Juhl; 0.4 mg./kg.) | No. of survivors/No. tested (P. vulgaris A9436 (Pv-1); 0.8 mg./kg.) | No. of survivors/No. tested (P. vulgaris A9436 (Pv-1); 3.1 mg./kg.) | No. of survivors/No. tested ([2]; 0.2 mg./kg.) | No. of survivors/No. tested ([2]; 0.8 mg./kg.) | No. of survivors/No. tested ([2]; 3.1 mg./kg.)
9.4 mg/kg: ED50 (K. pneumoniae A9977; Run C-805, 3×10^3 LD50, single sc)
36 mg/kg: ED50 (P. vulgaris A9436 (Pv-1); Proteus vulgaris, in Mus musculus, sc, read-out: PD50)
1.8 mg/kg: ED50 (E. coli Juhl; Escherichia coli, read-out: PD50)
3/5: No. of survivors/No. tested (P. vulgaris A9436 (Pv-1); 50 mg./kg.)
1.6 µg/mL: MIC (P. stuartii; Ps-1 A20745, MHA, Table 4) | MIC (Enterob. cloacae; El-4 A20650, MHA, Table 3) | MIC (Enterob. cloacae; El-8 A9655, MHA, Table 3) | MIC (Klebsiella sp.; Kx-2 A9662, MHA, Table 3) | MIC (Pr. mirabilis; Pm-2 A9900, MHA, Table 3) | MIC (Pr. mirabilis; Pm-4 A20454, MHA, Table 3) | MIC (Pr. mirabilis; Pm-6 A21222, MHA, Table 3)
0.8 mg/kg: ED50 ([1]; Enterobacter cloacae, read-out: PD50)
6.25 mg/kg: ED50 (K. pneumoniae A9977; Table 6)
2/5: No. of survivors/No. tested (E. coli Juhl; 1.6 mg./kg.) | No. of survivors/No. tested ([2]; 50 mg./kg.)
> 100 µg/mL: MIC (Enterob. cloacae; El-11 A20344 (β-lactamase), HIA, Table 4) | MIC (Enterob. cloacae; El-11 A20344 (β-lactamase), MHA, Table 4) | MIC (Enterob. cloacae; El-11 A20344 (β-lactamase), NA, Table 4) | MIC (Enterob. cloacae; El-11 A20344, MHA, Table 3)
5/5: No. of survivors/No. tested ([1]; 6.3 mg./kg.) | No. of survivors/No. tested ([1]; 100 mg./kg.) | No. of survivors/No. tested (K. pneumoniae A9977; 25 mg./kg., Table 6) | No. of survivors/No. tested (K. pneumoniae A9977; Run C-805, 3×10^3 LD50, single sc, 25 mg./kg.) | No. of survivors/No. tested (E. coli Juhl; 6.3 mg./kg.) | No. of survivors/No. tested (E. coli Juhl; 25 mg./kg.) | No. of survivors/No. tested (S. aureus Smith; 1.6 mg./kg.) | No. of survivors/No. tested (S. aureus Smith; 6.3 mg./kg.) | No. of survivors/No. tested (S. aureus Smith; 25 mg./kg.)
58.3%: dose excreted at 24 h (Urinary recovery in rats)
0.2 µg/mL: MIC (S. typhimurium) | MIC (Pr. rettgeri; A15167, MHA, Table 1) | MIC (Pr. rettgeri; Pr-1 A15167, MHA, Table 3) | MIC (Pr. rettgeri; Pr-1 A15167, MHA, Table 4) | MIC (Pr. rettgeri; Pr-1 A15167, NA, Table 4) | MIC (Pr. rettgeri; Pr-6 A20920, MHA, Table 3) | MIC (S. paratyphi) | MIC (P. stuartii; Ps-2 A20894, MHA, Table 4) | MIC (Sal. typhosa) | MIC (Pr. mirabilis; Pm-1 A9554, NA, Table 4) | MIC (Pr. mirabilis; strain not named (2nd of 2), MHA, Example 10)

Reference: patent publication US4112228A, “7-(D-α-Hydroxy-2-arylacetamido)-3-(2-carboxyalkyl-2,3-dihydro-s-tri azolo-[4,3-b]pyridazin-3-on-6-ylthiomethyl)-3-cephem-4-carboxylic acids and derivatives” (priority 1977, dated 1978)
